The source of these data is ChEMBL document CHEMBL4373690, “Photoactivatable Prolyl Hydroxylase 2 Inhibitors for Stabilizing the Hypoxia-Inducible Factor with Light” (J Med Chem, 2019).

Structures are written as SMILES. The source made the active and inactive calls. The rule behind the calls is not given here. A value given as a limit tells only on which side of the number the result lay.

The nature of series [1]: Drug metabolism in pH 7.4 PBS assessed as light-mediated formation of N-(5-(1-(2-(4-chlorophenoxy)ethyl)-1H-1,2,3-triazol-4-yl)-3-hydroxypicolinoyl)glycine at 50 uM followed by laser irradiation for 30 secs to 20 mins by UV-Visible spectroscopy.
Series [2] concerns the target Egl nine homolog 1 (Homo sapiens) (UniProt Q9GZT9). Briefly: Photoactivated inhibition of PHD2 (181 to 426 residues) (unknown origin) at 1.23 uM using FITC-HIF1alpha (556 to 574 residues) as substrate incubated for 60 mins using laser irradiated compound at 405 nm light for >20 mins by fluorescence polarization assay.
Series [3] has the same target. The experiment in a line: Photoactivated inhibition of PHD2 in human Hep3B cells assessed as increase in HIF-1alpha level in presence of light irradiation for 1 to 20 mins measured after 10 hrs by Western blot analysis. The format is cell-based.
The target is the same in series [4]. The experiment in a line: Photoactivated inhibition of PHD2 (181 to 426 residues) (unknown origin) using FITC-HIF1alpha (556 to 574 residues) as substrate incubated for 60 mins using laser irradiated compound at 405 nm light for 30 secs to 30 mins by fluorescence polarization assay.
Series [5] can be described thus: Chemical stability in pH 7.4 PBS buffer at 50 uM measured over 24 hrs by HPLC analysis. The conditions noted are these: pH 7.4, 24 h. The class given is physicochemical.
Series [6] can be described thus: Drug metabolism in pH 7.4 PBS assessed as light-mediated formation of N-(5-(1-(2-(4-chlorophenoxy)ethyl)-1H-1,2,3-triazol-4-yl)-3-hydroxypicolinoyl)glycine at 50 uM followed by laser irradiation for 30 secs by HPLC analysis.
Series [7] addresses Egl nine homolog 1 (Homo sapiens) (UniProt Q9GZT9). Briefly: Photoactivated inhibition of PHD2 in human Hep3B cells assessed as increase in HIF-2alpha level in nucleus in presence of light irradiation for 20 mins measured after 10 hrs by Western blot analysis. The class given is cell-based.
For series [8] the target is unchanged. The experiment in a line: Photoactivated inhibition of PHD2 in human Hep3B cells assessed as stabilization of HIFalpha by measuring upregulation of EPO gene expression at 50 uM in presence of light irradiation for >20 mins by qRT-PCR analysis. The class given is cell-based.
Series [9] is described as follows: Drug metabolism in pH 7.4 PBS assessed as light-mediated formation of N-(5-(1-(2-(4-chlorophenoxy)ethyl)-1H-1,2,3-triazol-4-yl)-3-hydroxypicolinoyl)glycine at 50 uM followed by laser irradiation for 5 mins by HPLC analysis.
The target of series [10] is Egl nine homolog 1 (Homo sapiens) (UniProt Q9GZT9). The experiment in a line: Photoactivated inhibition of PHD2 in human Hep3B cells assessed as increase in HIF-1alpha level in nucleus in presence of light irradiation for 20 mins measured after 10 hrs by Western blot analysis. The format is cell-based.
Egl nine homolog 1 (Homo sapiens), sequence (Q9GZT9 2-426 limits assumed): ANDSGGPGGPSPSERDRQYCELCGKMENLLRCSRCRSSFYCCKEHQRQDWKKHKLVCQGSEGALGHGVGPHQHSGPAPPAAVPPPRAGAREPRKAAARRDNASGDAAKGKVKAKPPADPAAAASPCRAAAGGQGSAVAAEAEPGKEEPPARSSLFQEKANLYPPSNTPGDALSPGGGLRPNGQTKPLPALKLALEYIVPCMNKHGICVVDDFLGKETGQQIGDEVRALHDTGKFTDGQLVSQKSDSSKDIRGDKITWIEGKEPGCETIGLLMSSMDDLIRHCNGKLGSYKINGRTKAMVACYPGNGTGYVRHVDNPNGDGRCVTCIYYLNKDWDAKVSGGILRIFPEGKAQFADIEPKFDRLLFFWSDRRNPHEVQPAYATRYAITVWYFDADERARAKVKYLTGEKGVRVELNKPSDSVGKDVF
The subject of a further series is HEK293. Briefly: Cytotoxicity against HEK293 cells at 100 uM after 72 hrs by MTT assay. The format is cell-based. Particulars: human, hek293, 72 h.
Series [11] in a line: Stability in rat plasma assessed as compound remaining at […] measured at 8 hrs by HPLC analysis. The format is ADME, cell-free. The conditions noted are these: read-out: Stability.
Series [12] can be described thus: Drug metabolism in pH 7.4 PBS assessed as light-mediated formation of N-(5-(1-(2-(4-chlorophenoxy)ethyl)-1H-1,2,3-triazol-4-yl)-3-hydroxypicolinoyl)glycine at 50 uM followed by laser irradiation for 9 mins by HPLC analysis.
Series [13] is described as follows: Drug metabolism in pH 7.4 PBS assessed as light-mediated formation of N-(5-(1-(2-(4-chlorophenoxy)ethyl)-1H-1,2,3-triazol-4-yl)-3-hydroxypicolinoyl)glycine at 50 uM followed by laser irradiation for 20 mins by HPLC analysis.
Series [14] concerns the target Egl nine homolog 1 (Homo sapiens) (UniProt Q9GZT9). Briefly: Photoactivated inhibition of PHD2 in HEK293 cells harboring firefly luciferase gene and renilla luciferase gene assessed as stabilization of HIF-alpha at 100 uM using […] under light irradiation for 1 to 30 mins and measured after 24 hrs by chemiluminescence assay. The class given is cell-based.

In another series the test system is HUVEC. Briefly: Cytotoxicity against HUVEC cells at 100 uM after 72 hrs by MTT assay. The format is cell-based. Particulars: human.
The nature of series [15]: Drug metabolism in pH 7.4 PBS assessed as light-mediated formation of N-(5-(1-(2-(4-chlorophenoxy)ethyl)-1H-1,2,3-triazol-4-yl)-3-hydroxypicolinoyl)glycine at 50 uM followed by laser irradiation for 2 mins by HPLC analysis.
The next series has as its system L02. The experiment in a line: Cytotoxicity against human L02 cells at 100 uM after 72 hrs by MTT assay. The class given is cell-based. The conditions noted are these: l02, 72 h.
The target of series [16] is Egl nine homolog 1 (Homo sapiens) (UniProt Q9GZT9). Briefly: Photoactivated inhibition of PHD2 in HEK293 cells harboring firefly luciferase gene and renilla luciferase gene assessed as spatiotemporal dependent accumulation of hypoxia response element level at 100 uM using […] under laser light irradiation after 24 hrs by chemiluminescence assay. The class given is cell-based.

Series [17] has the same target. The experiment in a line: Photoactivated inhibition of PHD2 in human Hep3B cells assessed as stabilization of HIFalpha by measuring upregulation of EPO gene expression at 50 uM in presence of light irradiation for 1 to 30 mins by qRT-PCR analysis. The class given is cell-based.
The nature of series [18]: Drug metabolism in pH 7.4 PBS assessed as light-mediated formation of N-(5-(1-(2-(4-chlorophenoxy)ethyl)-1H-1,2,3-triazol-4-yl)-3-hydroxypicolinoyl)glycine at 50 uM followed by laser irradiation by HPLC analysis.
In series [19] the target is Egl nine homolog 1 (Homo sapiens) (UniProt Q9GZT9). The experiment in a line: Photoactivated inhibition of PHD2 in human Hep3B cells assessed as increase in HIF-2alpha level in presence of light irradiation for 1 to 20 mins measured after 10 hrs by Western blot analysis. The format is cell-based.
Series [20] in a line: Drug metabolism in pH 7.4 PBS assessed as light-mediated formation of 7-(diethylamino)-4-(hydroxymethyl)-2H-chromen-2-one at 50 uM followed by laser irradiation by UV-Visible spectroscopy.
Series [21] in a line: Drug metabolism in pH 7.4 PBS assessed as light-mediated formation of N-(5-(1-(2-(4-chlorophenoxy)ethyl)-1H-1,2,3-triazol-4-yl)-3-hydroxypicolinoyl)glycine at 50 uM followed by laser irradiation for 15 mins by HPLC analysis.
A further series relates to Hep 3B2. Briefly: Cytotoxicity against human Hep3B cells at 100 uM after 72 hrs by MTT assay. The format is cell-based. Particulars: hep 3b2, 72 h.
Series [22] can be described thus: Drug metabolism in pH 7.4 PBS assessed as light-mediated formation of N-(5-(1-(2-(4-chlorophenoxy)ethyl)-1H-1,2,3-triazol-4-yl)-3-hydroxypicolinoyl)glycine at 50 uM followed by laser irradiation by UV-Visible spectroscopy.
Series [23] deals with Egl nine homolog 1 (Homo sapiens) (UniProt Q9GZT9). Briefly: Photoactivated inhibition of PHD2 (181 to 426 residues) (unknown origin) at 1.23 uM using FITC-HIF1alpha (556 to 574 residues) as substrate incubated for 60 mins using laser irradiated compound at 405 nm light for 20 mins by fluorescence polarization assay relative to control.
Series [24] can be described thus: Stability in human plasma assessed as compound remaining at […] measured at 8 hrs by HPLC analysis. Particulars: read-out: Stability. The format is ADME, cell-free.
Series [25] is described as follows: Drug metabolism in pH 7.4 PBS assessed as light-mediated formation of 7-(diethylamino)-4-(hydroxymethyl)-2H-chromen-2-one at 50 uM followed by laser irradiation by HPLC analysis.
Series [26] addresses Egl nine homolog 1 (Homo sapiens) (UniProt Q9GZT9). Briefly: Photoactivated inhibition of PHD2 (181 to 426 residues) (unknown origin) at 1.23 uM using FITC-HIF1alpha (556 to 574 residues) as substrate incubated for 60 mins using laser irradiated compound at 405 nm light by fluorescence polarization assay.
Series [27] can be described thus: Drug metabolism in pH 7.4 PBS assessed as light-mediated formation of N-(5-(1-(2-(4-chlorophenoxy)ethyl)-1H-1,2,3-triazol-4-yl)-3-hydroxypicolinoyl)glycine at 50 uM followed by laser irradiation for 120 mins by HPLC analysis.

Regarding `CCN(CC)c1ccc2c(COC(=O)CNC(=O)c3ncc(-c4cn(CCOc5ccc(Cl)cc5)nn4)cc3O)cc(=O)oc2c1`, the Drug metabolism entry is “Metabolite detected” in series [1]; 5% in series [6]; 49% in series [9]; 68% in series [12]; 100% in series [13]; 16% in series [15]. The Drug metabolism entry in [18] is “Metabolite detected”; in [20], “Metabolite detected”; in series [21], 82%; in [22] it was “Metabolite detected”; in [25] it was “Metabolite detected”. Moreover, the inhibition result in series [2], in [3], in series [4], in series [7], in series [8] and in series [10] was “Active” throughout. Further, the inhibition entry in series [14], in [16], in series [17] and in series [19] was “Active” in each case. Further, in [5], the Stability entry is “Stable”. Besides, the Activity entry with HEK293, with HUVEC, in the series on L02 and with Hep 3B2 was “Non-Toxic” in each case. For the same compound, the remaining at 8 h in series [11] and in series [24] was > 90% throughout. This compound came in with an inhibition in [23] of 95.2%.
`CCN(CC)c1ccc2c(COc3cc(-c4cn(CCOc5ccc(Cl)cc5)nn4)cnc3C(=O)NCC(=O)O)cc(=O)oc2c1`: the inhibition result in [26] was “inactive”. Besides, in series [27], the Drug metabolism result is “Metabolite not detected”.
`O=C(O)CNC(=O)c1ncc(-c2cn(CCOc3ccc(Cl)cc3)nn2)cc1O`: the Activity result with HEK293, in the series on HUVEC, with L02 and in the series on Hep 3B2 was “Non-Toxic” each time.
